The values that follow come from patent US7057048B2, “Androgen receptor antagonists” (Warner Lambert Company LLC, priority 2003, dated 2006).

SMILES strings stand for the structures. pIC50: −log10 of the molar value.

The test deals with T1, androgen receptor (Homo sapiens, UniProt P10275).
T1 sequence (P10275 1-920 Q868H): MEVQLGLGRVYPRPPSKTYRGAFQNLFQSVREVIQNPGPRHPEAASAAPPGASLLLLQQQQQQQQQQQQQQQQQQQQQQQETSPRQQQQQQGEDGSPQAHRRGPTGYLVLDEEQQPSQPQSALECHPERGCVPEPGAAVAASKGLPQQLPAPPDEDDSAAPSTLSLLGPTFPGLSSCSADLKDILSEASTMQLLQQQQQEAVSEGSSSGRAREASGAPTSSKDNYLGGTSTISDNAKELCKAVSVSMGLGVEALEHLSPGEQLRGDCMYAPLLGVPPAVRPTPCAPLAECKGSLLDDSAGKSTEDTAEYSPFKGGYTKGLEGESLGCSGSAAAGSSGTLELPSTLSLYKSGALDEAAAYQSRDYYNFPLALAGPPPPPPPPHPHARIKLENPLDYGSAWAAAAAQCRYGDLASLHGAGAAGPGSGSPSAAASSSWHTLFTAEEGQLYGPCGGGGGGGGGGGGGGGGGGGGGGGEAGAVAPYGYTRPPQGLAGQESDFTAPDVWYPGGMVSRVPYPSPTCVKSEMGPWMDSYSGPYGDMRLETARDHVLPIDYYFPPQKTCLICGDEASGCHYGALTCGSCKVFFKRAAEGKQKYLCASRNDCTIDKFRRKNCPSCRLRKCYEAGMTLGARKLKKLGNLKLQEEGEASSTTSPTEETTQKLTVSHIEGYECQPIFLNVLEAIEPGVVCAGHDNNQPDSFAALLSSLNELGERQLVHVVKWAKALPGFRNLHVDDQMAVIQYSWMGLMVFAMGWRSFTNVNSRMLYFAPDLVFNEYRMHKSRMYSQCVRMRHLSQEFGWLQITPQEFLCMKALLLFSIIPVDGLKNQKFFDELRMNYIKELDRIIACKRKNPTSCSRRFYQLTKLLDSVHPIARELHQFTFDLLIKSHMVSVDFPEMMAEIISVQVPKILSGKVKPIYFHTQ
In words: AR Antagonist Cell Assay (MMTV-luciferase reporter, DHT-stimulated). Type of test: cell-based. To be noted: MDA-MB453-MMTV clone 54-19 cells, inhibition of induction by 100 pM DHT, 17 hr. The procedure:
The compounds ability to antagonize the effects of androgen on the androgen receptor were determined in the protocol described immediately below.
Experimental Procedure for AR Antagonist Cell Assay
Cell line: MDA-MB453-MMTV clone 54-19. This cell line is a stable transfected cell line with MDA-MB453 cell background (human breast tumor cell expressing high level of androgen receptor). A MMTV minimal promoter containing ARE was first cloned in front of a firefly luciferase reporter gene. Then the cascade was cloned into transfection vector pUV120puro. Electroporation method was used for transfecting MDA-MB-453 cell. Puromycin resistant stable cell line was selected.
Cell Culture Media and Reagents:
Culture medium: DMEM (high glucose, Gibco cat #: 11960-044), 10% FBS, and 1% L-glutamine
Plating medium: DMEM (phenol red free), 10% charcoal treated HyClone serum, 1% L-glutamine
Assay medium: DMEM (phenol red free), 1% charcoal treated HyClone serum, 1% L-glutamine, and 1% penicillin/streptomycin
3×luciferase buffer: 2% beta-mercaptoethanol, 0.6% ATP, 0.0135% luciferine in cell lysis buffer
• 1. Cells are maintained in culture medium, splitting cells when they reach 80–90% confluence • 2. To test compounds, 10,000 cells/well are plated to opaque 96 cell culture plate in 100 ul/well plating medium, culture for overnight at 37° C. in cell culture incubator • 3. Carefully remove plating medium, then add 80 ul/well of pre-warmed assay medium, add 10 ul/well testing compound (final concentration at 10 uM or 1 uM), incubate at 37° C. for 30 minutes • 4. Add 10 ul/well freshly prepared DHT (final concentration at 100 pM) to each well, incubate at 37° C. for 17 hr (overnight) • 5. Add 50 ul/well 3×luciferase buffer, incubate at room temperature for 5 minutes, then count on Luminometer
The fold induction over background by 100 pM DHT in the absence of testing compounds is standardized as 100% and experimental result is expressed as percentage of inhibition by testing compounds.
With `COc1cc2c(cc1OC)CN(S(=O)(=O)c1ccc(Cc3ccc4[nH]c(=O)cc(C(F)(F)F)c4c3)cc1)CC2` [Example 5, 6-[4-(6,7-Dimethoxy-3,4-dihydro-1H-isoquinoline-2-sulfonyl)benzyl]-4-trifluoromethyl-1H-quinolin-2-one], the negative logarithm of the IC50 (pIC50) was less than 5.00.
`O=c1cc(C(F)(F)F)c2cc(Cc3ccc(S(=O)(=O)N4CCc5ccccc5C4)cc3)ccc2[nH]1` [Example 2, 6-[4-(3,4-Dihydro-1H-isoquinoline-2-sulfonyl)benzyl]-4-trifluoromethyl-1H-quinolin-2-one] showed a pIC50 of 5.17.
Turning to `CN(C)CCN1CCN(S(=O)(=O)c2ccc(Cc3ccc4oc(=O)cc(C(F)(F)F)c4c3)cc2)CC1` [Example 55, 6-{4-[4-(2-Dimethylamino-ethyl)piperazine-1-sulfonyl]benzyl}-4-trifluoromethylchromen-2-one], the negative-log IC50 (pIC50) was less than 5.00.
For `CC(C)N(CCN1CCN(S(=O)(=O)c2ccc(Cc3ccc4oc(=O)cc(C(F)(F)F)c4c3)cc2)CC1)C(C)C` [Example 44, 6-{4-[4-(2-Diisopropylamino-ethyl)piperazine-1-sulfonyl]benzyl}-4-trifluoromethylchromen-2-one], the pIC50 was 5.28.
The result for `O=c1cc(C(F)(F)F)c2cc(Cc3ccc(S(=O)(=O)N4CCSC4)cc3)ccc2o1` [Example 46, 6-[4-(Thiazolidine-3-sulfonyl)benzyl]-4-trifluoromethylchromen-2-one] reads less than 5.00; that for `O=c1cc(C(F)(F)F)c2cc(Cc3ccc(S(=O)(=O)N4CCCC5CCCCC54)cc3)ccc2[nH]1` (centres unmarked) [Example 19, 6-[4-(Octahydroquinoline-1-sulfonyl)benzyl]-4-trifluoromethyl-1H-quinolin-2-one], less than 5.00; that for `CCOC(=O)C1CCN(S(=O)(=O)c2ccc(Cc3ccc4[nH]c(=O)cc(C(F)(F)F)c4c3)cc2)CC1` [Example 4], less than 5.00.
Take `CC1CN(S(=O)(=O)c2ccc(Cc3ccc4[nH]c(=O)cc(C(F)(F)F)c4c3)cc2)CC(C)O1` (centres unmarked) [Example 24, 6-[4-(2,6-Dimethylmorpholine-4-sulfonyl)benzyl]-4-trifluoromethyl-1H-quinolin-2-one]: the pIC50 was 5.19.
